Experimental data as given in article PMC6775094, “A robust bacterial assay for high-throughput screening of human 4-hydroxyphenylpyruvate dioxygenase inhibitors” (Scientific Reports, 2019).

Each compound was assayed against T1, 4-hydroxyphenylpyruvate dioxygenase (HPD) (Homo sapiens, UniProt P32754) (assay: cell-based).
T1 construct: wild type human HPD (NM_002150.2), pET42b(+), expressed in E. coli C43 (DE3)
T1 sequence (P32754 2-393): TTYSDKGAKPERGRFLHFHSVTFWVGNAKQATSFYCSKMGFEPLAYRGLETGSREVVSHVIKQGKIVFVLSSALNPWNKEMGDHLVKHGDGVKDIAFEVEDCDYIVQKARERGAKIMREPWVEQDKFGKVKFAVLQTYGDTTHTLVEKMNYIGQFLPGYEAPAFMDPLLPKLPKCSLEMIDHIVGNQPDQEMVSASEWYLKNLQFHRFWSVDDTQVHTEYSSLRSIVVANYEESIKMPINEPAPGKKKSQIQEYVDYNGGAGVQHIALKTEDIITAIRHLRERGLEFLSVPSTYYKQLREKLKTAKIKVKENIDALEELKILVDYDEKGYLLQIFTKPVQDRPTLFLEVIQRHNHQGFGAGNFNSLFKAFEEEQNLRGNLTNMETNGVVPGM

| Structure (SMILES) | IC50 |
| --- | --- |
| CS(=O)(=O)c1ccc(C(=O)C2C(=O)CCCC2=O)c([N+](=O)[O-])c1 [mesotrione] | 396 ± 48 nM |
| CS(=O)(=O)c1ccc(C(=O)C2C(=O)CCCC2=O)c(Cl)c1 [sulcotrione] | 187 ± 37 nM |
| CS(=O)(=O)c1ccc(C(=O)C2C(=O)CCCC2=O)c(Cl)c1COCC(F)(F)F [tembotrione] | 610 ± 15 nM |
